Measurements reported in patent publication US20210321627A1, “NON-PESTICIDAL ATTRACT AND KILL COMPOSITION FOR CONTROL OF INSECTS” (Oregon State University, priority 2018, published 2021).

System: D. suzukii
Assay: Laboratory choice assays (double-choice ventilated arenas)
Format: in vivo, Drosophila suzukii
Details: vs flies selecting deionized water and flies not making any choice; 24 h; P<0.001
Method: Constant and uniform airflow was created within each of the containers using a vacuum at 1.5 L mid′ from the base and through the upper portion of each of the respective containers. Attraction to the matrix containing the ingredients of the exemplary insect control composition was verified in double-choice behavioral experiments. Arenas were prepared using 2-L transparent Griffin-style graduated low-form plastic beakers (Nalgene, Rochester, N.Y.). For each beaker, 9 ventilation holes (1 cm diameter) were cut along the circumference approximately 6 cm from the base. The holes were covered with fine white mesh in order to prevent D. suzukii individuals from escaping. The top of each beaker was drilled and connected to a 0.5 cm diameter plastic tube providing a vacuum in order to create a constant and uniform air flow (1.5 L min^−1) within the containers. Beakers were placed upside down on a flat work surface covered by white paper sheets. Two 25 mL plastic cups (Dart Container Corporation, Mason, Mich.) containing ˜10 mL of water and 5 g of arabinogalactan were placed at the base of each beaker. Both cups were covered with a wax film (Parafilm® M, Pechiney, Chicago, Ill.). 3 holes (˜0.3 cm diameter) were cut on the film coverings in order to allow the flies to enter the cups. […]

arabinogalactan
number of flies selecting deli cups containing arabinogalactan: significantly higher
